In BigSolDB 2.1:

CCCCCCCCCCCC(=O)O
solubility (mole fraction)
Conditions	in ethanol	in isobutanol	in isopentanol	in methanol	in n-butanol	in n-hexanol	in n-pentanol	in n-propanol
276.17 K	0.0422	0.0659	0.0814	0.0318	0.0646	0.0827	0.0742	0.054
279.16 K	0.0554	0.0817	0.1	0.0419	0.0801	0.0991	0.0907	0.0685
282.16 K	0.0739	0.102	0.122	0.0555	0.0999	0.122	0.113	0.0859
285.15 K	0.0924	0.128	0.15	0.0723	0.123	0.151	0.137	0.108
288.15 K	0.119	0.158	0.179	0.0942	0.151	0.183	0.167	0.135
291.14 K	0.151	0.195	0.217	0.123	0.188	0.22	0.204	0.169
294.14 K	0.194	0.238	0.263	0.161	0.229	0.266	0.247	0.21
297.13 K	0.244	0.289	0.315	0.208	0.283	0.322	0.301	0.261
300.13 K	0.305	0.351	0.376	0.264	0.338	0.39	0.368	0.319
303.12 K	0.386	0.422	0.446	0.341	0.418	0.464	0.435	0.399
306.12 K	0.482	0.514	0.537	0.433	0.51	0.549	0.53	0.488
